Reference: PubChem BioAssay (NCI)
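These data come from cells grown in 96-well plates and exposed to compound for 48 hours at five concentrations. Abbreviation: GI50, concentration required for 50% inhibition of growth. TGI is the concentration that stops growth completely.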

Legend:
Assay in all cases: growth of human tumour cells (NCI), 48 h
786-0 renal = system: 786-0 renal
A498 renal = system: A498 renal
A549 NSCLC = system: A549 NSCLC
ACHN renal = system: ACHN renal
BT-549 breast = system: BT-549 breast
CAKI-1 renal = system: CAKI-1 renal
CCRF-CEM leukemia = system: CCRF-CEM leukemia
DU-145 prostate = system: DU-145 prostate
EKVX NSCLC = system: EKVX NSCLC
HCC-2998 colon = system: HCC-2998 colon
HCT-116 colon = system: HCT-116 colon
HCT-15 colon = system: HCT-15 colon
HL-60(TB) leukemia = system: HL-60(TB) leukemia
HOP-62 NSCLC = system: HOP-62 NSCLC
HOP-92 NSCLC = system: HOP-92 NSCLC
HS 578T breast = system: HS 578T breast
HT29 colon = system: HT29 colon
IGROV1 ovarian = system: IGROV1 ovarian
KM12 colon = system: KM12 colon
LOX IMVI melanoma = system: LOX IMVI melanoma
M14 melanoma = system: M14 melanoma
MALME-3M melanoma = system: MALME-3M melanoma
MCF7 breast = system: MCF7 breast
MDA-MB-231 breast = system: MDA-MB-231 breast
MDA-MB-435 = system: MDA-MB-435
MOLT-4 leukemia = system: MOLT-4 leukemia
NCI-H226 lung = system: NCI-H226 lung
NCI-H23 lung = system: NCI-H23 lung
NCI-H460 lung = system: NCI-H460 lung
NCI-H522 lung = system: NCI-H522 lung
NCI/ADR-RES ovarian = system: NCI/ADR-RES ovarian
OVCAR-3 ovarian = system: OVCAR-3 ovarian
OVCAR-4 ovarian = system: OVCAR-4 ovarian
OVCAR-5 ovarian = system: OVCAR-5 ovarian
OVCAR-8 ovarian = system: OVCAR-8 ovarian
PC-3 prostate = system: PC-3 prostate
RPMI-8226 leukemia = system: RPMI-8226 leukemia
RXF 393 renal = system: RXF 393 renal
SF-268 CNS = system: SF-268 CNS
SF-295 CNS = system: SF-295 CNS
SF-539 CNS = system: SF-539 CNS
SK-MEL-2 melanoma = system: SK-MEL-2 melanoma
SK-MEL-28 melanoma = system: SK-MEL-28 melanoma
SK-MEL-5 melanoma = system: SK-MEL-5 melanoma
SK-OV-3 ovarian = system: SK-OV-3 ovarian
SN12C renal = system: SN12C renal
SNB-19 CNS = system: SNB-19 CNS
SNB-75 CNS = system: SNB-75 CNS
SR leukemia = system: SR leukemia
SW-620 colon = system: SW-620 colon
T-47D breast = system: T-47D breast
TK-10 renal = system: TK-10 renal
U251 CNS = system: U251 CNS
UACC-257 melanoma = system: UACC-257 melanoma
UACC-62 melanoma = system: UACC-62 melanoma
UO-31 renal = system: UO-31 renal

For `Cc1cc2nc3c4ccc(Br)cc4n(CCN(C)C)c3nc2cc1C`, the GI50 (786-0 renal) was 1440 nM, the TGI (786-0 renal) was 7650 nM and the GI50 (A498 renal) was 1020 nM. It also gave a TGI (A498 renal) of 2540 nM, a GI50 (A549 NSCLC) of 1160 nM and a TGI (A549 NSCLC) of 10300 nM. It also gave a GI50 (ACHN renal) of 459 nM, a TGI (ACHN renal) of 2230 nM and a GI50 (BT-549 breast) of 1710 nM. The TGI (BT-549 breast) was 3750 nM, the GI50 (CAKI-1 renal) was 1530 nM and the TGI (CAKI-1 renal) was 5420 nM. The GI50 (CCRF-CEM leukemia) was 1500 nM, the TGI (CCRF-CEM leukemia) was 10500 nM and the GI50 (DU-145 prostate) was 2960 nM. It also gave a TGI (DU-145 prostate) of 9960 nM, a GI50 (EKVX NSCLC) of 2020 nM and a TGI (EKVX NSCLC) of 6580 nM. For the same molecule, the GI50 (HCC-2998 colon) was 1230 nM, the TGI (HCC-2998 colon) was 2740 nM and the GI50 (HCT-116 colon) was 451 nM. For the same molecule, the TGI (HCT-116 colon) was 2140 nM, the GI50 (HCT-15 colon) was 751 nM and the TGI (HCT-15 colon) was 6240 nM. The GI50 (HL-60(TB) leukemia) was 1450 nM, the TGI (HL-60(TB) leukemia) was 5680 nM and the GI50 (HOP-62 NSCLC) was 1710 nM. For the same molecule, the TGI (HOP-62 NSCLC) was 10700 nM, the GI50 (HOP-92 NSCLC) was 1300 nM and the TGI (HOP-92 NSCLC) was 5280 nM. It also gave a GI50 (HS 578T breast) of 2060 nM, a TGI (HS 578T breast) of 6380 nM and a GI50 (HT29 colon) of 664 nM. The TGI (HT29 colon) was 2890 nM, the GI50 (IGROV1 ovarian) was 1120 nM and the TGI (IGROV1 ovarian) was 3970 nM. It also gave a GI50 (KM12 colon) of 1540 nM, a TGI (KM12 colon) of 4660 nM and a GI50 (LOX IMVI melanoma) of 532 nM. For the same molecule, the TGI (LOX IMVI melanoma) was 1900 nM, the GI50 (M14 melanoma) was 1550 nM and the TGI (M14 melanoma) was 3390 nM. For the same molecule, the GI50 (MALME-3M melanoma) was 1440 nM, the TGI (MALME-3M melanoma) was 2920 nM and the GI50 (MCF7 breast) was 1170 nM. It also gave a TGI (MCF7 breast) of 3060 nM, a GI50 (MDA-MB-231 breast) of 1970 nM and a TGI (MDA-MB-231 breast) of 7450 nM. The GI50 (MDA-MB-435) was 1680 nM, the TGI (MDA-MB-435) was 3040 nM and the GI50 (MOLT-4 leukemia) was 412 nM. For the same molecule, the TGI (MOLT-4 leukemia) was 5620 nM, the GI50 (NCI-H226 lung) was 2460 nM and the TGI (NCI-H226 lung) was 11100 nM. For the same molecule, the GI50 (NCI-H23 lung) was 1500 nM, the TGI (NCI-H23 lung) was 3470 nM and the GI50 (NCI-H460 lung) was 1260 nM. The TGI (NCI-H460 lung) was 3950 nM, the GI50 (NCI-H522 lung) was 1990 nM and the TGI (NCI-H522 lung) was 4660 nM. The GI50 (NCI/ADR-RES ovarian) was 609 nM, the TGI (NCI/ADR-RES ovarian) was 4690 nM and the GI50 (OVCAR-3 ovarian) was 2040 nM. The TGI (OVCAR-3 ovarian) was 6960 nM, the GI50 (OVCAR-4 ovarian) was 1620 nM and the TGI (OVCAR-4 ovarian) was 7490 nM. It also gave a GI50 (OVCAR-5 ovarian) of 1990 nM, a TGI (OVCAR-5 ovarian) of 5880 nM and a GI50 (OVCAR-8 ovarian) of 1240 nM. It also gave a TGI (OVCAR-8 ovarian) of 11800 nM, a GI50 (PC-3 prostate) of 1510 nM and a TGI (PC-3 prostate) of 4220 nM. The GI50 (RPMI-8226 leukemia) was 2160 nM, the TGI (RPMI-8226 leukemia) was 5930 nM and the GI50 (RXF 393 renal) was 1310 nM. The TGI (RXF 393 renal) was 3010 nM, the GI50 (SF-268 CNS) was 2000 nM and the TGI (SF-268 CNS) was 6240 nM. The GI50 (SF-295 CNS) was 804 nM, the TGI (SF-295 CNS) was 2910 nM and the GI50 (SF-539 CNS) was 1600 nM. For the same molecule, the TGI (SF-539 CNS) was 3170 nM, the GI50 (SK-MEL-2 melanoma) was 2000 nM and the TGI (SK-MEL-2 melanoma) was 4240 nM. The GI50 (SK-MEL-28 melanoma) was 1690 nM, the TGI (SK-MEL-28 melanoma) was 3120 nM and the GI50 (SK-MEL-5 melanoma) was 1720 nM. It also gave a TGI (SK-MEL-5 melanoma) of 3120 nM, a GI50 (SK-OV-3 ovarian) of 2650 nM and a TGI (SK-OV-3 ovarian) of 12700 nM. The GI50 (SN12C renal) was 1100 nM, the TGI (SN12C renal) was 6180 nM and the GI50 (SNB-19 CNS) was 1600 nM. For the same molecule, the TGI (SNB-19 CNS) was 7520 nM, the GI50 (SNB-75 CNS) was 1820 nM and the TGI (SNB-75 CNS) was 5190 nM. It also gave a GI50 (SR leukemia) of 423 nM, a TGI (SR leukemia) of 10000 nM and a GI50 (SW-620 colon) of 478 nM. It also gave a TGI (SW-620 colon) of 1840 nM, a GI50 (T-47D breast) of 2050 nM and a TGI (T-47D breast) of 6600 nM. For the same molecule, the GI50 (TK-10 renal) was 1970 nM, the TGI (TK-10 renal) was 7230 nM and the GI50 (U251 CNS) was 1470 nM. It also gave a TGI (U251 CNS) of 4440 nM, a GI50 (UACC-257 melanoma) of 1880 nM and a TGI (UACC-257 melanoma) of 3910 nM. For the same molecule, the GI50 (UACC-62 melanoma) was 1820 nM, the TGI (UACC-62 melanoma) was 3680 nM and the GI50 (UO-31 renal) was 561 nM. It also gave a TGI (UO-31 renal) of 9500 nM.
